# Assay results published in ChEMBL document CHEMBL1772973, “Design, synthesis, radiolabeling, and in vitro and in vivo evaluation of bridgehead iodinated analogues of N-{2-[4-(2-methoxyphenyl)piperazin-1-yl]ethyl}-N-(pyridin-2-yl)cyclohexanecarboxamide (WAY-100635) as potential SPECT ligands for the 5-HT1A receptor” (J Med Chem, 2011).
# Assays:
# Assay type in all cases: ADME, organism-based
# Thyroid gland [1] = test: Biodistribution in Wistar rat thyroid assessed per organ at 7 MBq, iv after 120 mins; settings: in vivo, 2 h
# Lung [2] = test: Biodistribution in Wistar rat lung at 7 MBq, iv after 15 mins; settings: in vivo, 0.25 h
# Nucleic Acid [3] = test: Ratio of drug level in cerebellum to striatum in Wistar rat at 7 MBq, iv after 45 mins; settings: in vivo, 0.75 h
# Occipital cortex [4] = test: Biodistribution in Wistar rat occipital cortex at 7 MBq, iv after 120 mins; settings: in vivo, 2 h
# Rattus norvegicus [5] = test: Biodistribution in Wistar rat rest cortex at 7 MBq, iv after 15 mins; settings: in vivo, 0.25 h
# Blood [6] = test: Biodistribution in Wistar rat blood at 7 MBq, iv after 120 mins; settings: in vivo, 2 h
# Striatum [7] = test: Biodistribution in Wistar rat striatum at 7 MBq, iv after 15 mins; settings: in vivo, 0.25 h
# Lung [8] = test: Biodistribution in Wistar rat lung at 7 MBq, iv after 45 mins; settings: in vivo, 0.75 h
# Hippocampus [9] = test: Biodistribution in Wistar rat hippocampus at 7 MBq, iv after 15 mins; settings: in vivo, 0.25 h
# Occipital cortex [10] = test: Biodistribution in Wistar rat occipital cortex at 7 MBq, iv after 15 mins; settings: in vivo, 0.25 h
# Rattus norvegicus [11] = test: Biodistribution in Wistar rat rest cortex at 7 MBq, iv after 45 mins; settings: in vivo, 0.75 h
# Nucleic Acid [12] = test: Ratio of drug level in cerebellum to occipital cortex in Wistar rat at 7 MBq, iv after 45 mins; settings: in vivo, 0.75 h
# Striatum [13] = test: Biodistribution in Wistar rat striatum at 7 MBq, iv after 45 mins; settings: in vivo, 0.75 h
# Rattus norvegicus [14] = test: Biodistribution in Wistar rat frontal cortex at 7 MBq, iv after 15 mins; settings: in vivo, 0.25 h
# Rattus norvegicus [15] = test: Biodistribution in Wistar rat frontal cortex at 7 MBq, iv after 120 mins; settings: in vivo, 2 h
# Striatum [16] = test: Biodistribution in Wistar rat striatum at 7 MBq, iv after 120 mins; settings: in vivo, 2 h
# Kidney [17] = test: Biodistribution in Wistar rat kidney at 7 MBq, iv after 120 mins; settings: in vivo, 2 h
# Cerebellum [18] = test: Biodistribution in Wistar rat cerebellum at 7 MBq, iv after 120 mins; settings: in vivo, 2 h
# Lung [19] = test: Biodistribution in Wistar rat lung at 7 MBq, iv after 120 mins; settings: in vivo, 2 h
# Kidney [20] = test: Biodistribution in Wistar rat kidney at 7 MBq, iv after 15 mins; settings: in vivo, 0.25 h
# Heart [21] = test: Biodistribution in Wistar rat heart at 7 MBq, iv after 45 mins; settings: in vivo, 0.75 h
# Hippocampus [22] = test: Biodistribution in Wistar rat hippocampus at 7 MBq, iv after 120 mins; settings: in vivo, 2 h
# Nucleic Acid [23] = test: Ratio of drug level in cerebellum to frontal cortex in Wistar rat at 7 MBq, iv after 45 mins; settings: in vivo, 0.75 h
# Blood [24] = test: Biodistribution in Wistar rat blood at 7 MBq, iv after 15 mins; settings: in vivo, 0.25 h
# Rattus norvegicus [25] = test: Biodistribution in Wistar rat rest cortex at 7 MBq, iv after 120 mins; settings: in vivo, 2 h
# Liver [26] = test: Biodistribution in Wistar rat liver at 7 MBq, iv after 45 mins; settings: in vivo, 0.75 h
# Kidney [27] = test: Biodistribution in Wistar rat kidney at 7 MBq, iv after 45 mins; settings: in vivo, 0.75 h
# Nucleic Acid [28] = test: Ratio of drug level in cerebellum to hippocampus in Wistar rat at 7 MBq, iv after 45 mins; settings: in vivo, 0.75 h
# Thyroid gland [29] = test: Biodistribution in Wistar rat thyroid assessed per organ at 7 MBq, iv after 15 mins; settings: in vivo, 0.25 h
# Hippocampus [30] = test: Biodistribution in Wistar rat hippocampus at 7 MBq, iv after 45 mins; settings: in vivo, 0.75 h
# Rattus norvegicus [31] = test: Biodistribution in Wistar rat frontal cortex at 7 MBq, iv after 45 mins; settings: in vivo, 0.75 h
# Cerebellum [32] = test: Biodistribution in Wistar rat cerebellum at 7 MBq, iv after 15 mins; settings: in vivo, 0.25 h
# Cerebellum [33] = test: Biodistribution in Wistar rat cerebellum at 7 MBq, iv after 45 mins; settings: in vivo, 0.75 h
# Liver [34] = test: Biodistribution in Wistar rat liver at 7 MBq, iv after 120 mins; settings: in vivo, 2 h
# Occipital cortex [35] = test: Biodistribution in Wistar rat occipital cortex at 7 MBq, iv after 45 mins; settings: in vivo, 0.75 h
# Heart [36] = test: Biodistribution in Wistar rat heart at 7 MBq, iv after 120 mins; settings: in vivo, 2 h
# Liver [37] = test: Biodistribution in Wistar rat liver at 7 MBq, iv after 15 mins; settings: in vivo, 0.25 h
# Heart [38] = test: Biodistribution in Wistar rat heart at 7 MBq, iv after 15 mins; settings: in vivo, 0.25 h
# Blood [39] = test: Biodistribution in Wistar rat blood at 7 MBq, iv after 45 mins; settings: in vivo, 0.75 h
structure (smiles),measurement,setting,value
O=C(N(CCN1CCN(c2ccccc2O)CC1)c1ccccn1)C12C3C4C1C1C2C3C41[123I] (centres undefined),Drug uptake,Thyroid gland [1],0.25 %ID
same,Drug uptake,Lung [2],0.59 % ID/g
same,Ratio,Nucleic Acid [3],0.93
same,Drug uptake,Occipital cortex [4],0.04 % ID/g
same,Drug uptake,Rattus norvegicus [5],0.28 % ID/g
same,Drug uptake,Blood [6],0.22 % ID/g
same,Drug uptake,Striatum [7],0.23 % ID/g
same,Drug uptake,Lung [8],0.3 % ID/g
same,Drug uptake,Hippocampus [9],0.44 % ID/g
same,Drug uptake,Occipital cortex [10],0.37 % ID/g
same,Drug uptake,Rattus norvegicus [11],0.09 % ID/g
same,Ratio,Nucleic Acid [12],1.73
same,Drug uptake,Striatum [13],0.07 % ID/g
same,Drug uptake,Rattus norvegicus [14],0.34 % ID/g
same,Drug uptake,Rattus norvegicus [15],0.04 % ID/g
same,Drug uptake,Striatum [16],0.03 % ID/g
same,Drug uptake,Kidney [17],3.12 % ID/g
same,Drug uptake,Cerebellum [18],0.04 % ID/g
same,Drug uptake,Lung [19],0.19 % ID/g
same,Drug uptake,Kidney [20],5.54 % ID/g
same,Drug uptake,Heart [21],0.14 % ID/g
same,Drug uptake,Hippocampus [22],0.05 % ID/g
same,Ratio,Nucleic Acid [23],1.44
same,Drug uptake,Blood [24],0.18 % ID/g
same,Drug uptake,Rattus norvegicus [25],0.03 % ID/g
same,Drug uptake,Liver [26],2.08 % ID/g
same,Drug uptake,Kidney [27],5.47 % ID/g
same,Ratio,Nucleic Acid [28],2.38
same,Drug uptake,Thyroid gland [29],0.28 %ID
same,Drug uptake,Hippocampus [30],0.18 % ID/g
same,Drug uptake,Rattus norvegicus [31],0.11 %ID
same,Drug uptake,Cerebellum [32],0.25 % ID/g
same,Drug uptake,Cerebellum [33],0.08 % ID/g
same,Drug uptake,Liver [34],1.97 % ID/g
same,Drug uptake,Occipital cortex [35],0.13 % ID/g
same,Drug uptake,Heart [36],0.12 % ID/g
same,Drug uptake,Liver [37],2.38 % ID/g
same,Drug uptake,Heart [38],0.22 % ID/g
same,Drug uptake,Blood [39],0.2 % ID/g
